Patent EP3290412A1, “HIV-1 NUCLEOCAPSID INHIBITORS” (Università degli Studi di Siena, priority 2016, dated 2018)
Read-outs that look alike come from different tables or passages of the source.

How the values were obtained:
[1] = test system: Peripheral blood mononuclear cells (PBMC); format: cell-based; details: human, 7 days
Summary of the method: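 Healthy-donor PBMC stimulated 2 days with 5 µg/mL PHA, then seeded at 1x10^5 cells/well in medium with 20 IU/mL IL-2 and exposed to compound for 7 days. Viability measured by MTS (4 h, OD 490 nm). TD50 interpolated from dose versus percent mortality relative to untreated cells.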

[2] = test system: HIV-1 reference strain NL4-3; assay: BiCycle assay (MT-2 then TZM-bl cells); format: cell-based
Summary of the method: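 MT-2 cells were infected with NL4-3 in the presence of five-fold compound dilutions. After 72 h, the supernatant was passed to TZM-bl cells. Two days later, luciferase luminescence was read and IC50 calculated, giving a readout that spans the whole replication cycle.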

HeLa cells = assay: HeLa Proliferation assay (CellTiter Glo); format: cell-based; details: 72 hours
Summary of the method: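 HeLa cells in phenol red-free DMEM + 10% FBS plated at 2000 cells/well, recovered 4 h, then exposed to compounds for 72 h at 37 °C, 5% CO2. Viability read by CellTiter Glo luminescence.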

[3] = molecular target: T1, full length (1-55) HIV-1 NCp7 (Human immunodeficiency virus type 1 group M subtype B, UniProt P12493); assay: Electromobility Shift Assay (EMSA), competition for ssDNA binding; details: NCp7 300 nM, M13mp18 ssDNA; positive = >25% inhibition at 100µM
T1 construct: recombinant full length (1-55) HIV-1 NCp7 proteins; made in house
Summary of the method: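 Recombinant NL4-3 NCp7 (300 nM in the pre-mix) was combined with compound in 20 mM Tris-HCl pH 7.4, 2 mM MgCl2, 100 mM NaCl, 1 mM DTT, then M13mp18 ssDNA was added for 25 min at 37 °C. Complexes were run on 1% agarose/0.5x TBE and stained with SybrGold. IC50 is the concentration at which bound ssDNA migrated 50% of the bound–unbound distance (triplicate).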

[4] = Human immunodeficiency virus 1, NL43, TZM-bl, read-out: BiCycle IC50 nM
[5] = Human immunodeficiency virus 1, NL43, MT-2 cells 72 hours then TZM-bl cells two days, NL4-3, read-out: BiCycle IC50

Which results are given for `Cc1cccnc1-c1nc(O)c(O)c(C(=O)N[C@H](C)C2CCCCC2)n1` [Compound 23, (R)-N-(1-cyclohexylethyl)-5,6-dihydroxy-2-(3-methylpyridin-2-yl)pyrimidine-4-carboxamide]?
Proliferation assay PBMC TD50 [1]: 8900 nM; TD50 [1]: 8.9 µM; IC50 [2, 4]: 203 nM; EC50 ([2]; Human immunodeficiency virus 1, NL43, TZM-bl, read-out: Mean EC50 (nM)): 200 nM; Proliferation assay HELA TD50 (HeLa cells): 2333.9 nM; EMSA screening results [3]: Positive (A compound showing >25% inhibition when tested at 100µM concentration is considered as "positive")

Which results are given for `CC1CCCCC1NC(=O)c1nc(-c2ccccn2)nc(O)c1O` (stereo not drawn) [Compound 59, 5,6-dihydroxy-N-(2-methylcyclohexyl)-2-(pyridin-2-yl)pyrimidine-4-carboxamide]?
Proliferation assay PBMC TD50 [1]: 2180 nM; IC50 [2, 4]: 408 nM; Proliferation assay HELA TD50 (HeLa cells): 694.6 nM; EMSA screening results [3]: Positive (A compound showing >25% inhibition when tested at 100µM concentration is considered as "positive")

Which results are given for `C[C@@H](NC(=O)c1nc(-c2cc(C(F)(F)F)ccn2)nc(O)c1O)C1CCCCC1` [Compound 27, (R)-N-(1-cyclohexylethyl)-5,6-dihydroxy-2-(4-(trifluoromethyl)pyridin-2-yl)pyrimidine-4-carboxamide]?
Proliferation assay PBMC TD50 [1]: 1075 nM; IC50 [2, 4]: 433 nM; Proliferation assay HELA TD50 (HeLa cells): 5975.3 nM; EMSA screening results [3]: Positive (A compound showing >25% inhibition when tested at 100µM concentration is considered as "positive")

With `Cc1ccc(-c2nc(O)c(O)c(C(=O)N[C@H](C)C3CCCCC3)n2)nc1C` [Compound 67, (R)-N-(1-cyclohexylethyl)-2-(,5,6-dimethylpyridin-2-yl)-5,6-dihydroxypyrimidine-4-carboxamide] as the molecule, how does the “Proliferation assay PBMC TD50” value [1] read?
The value was 6700 nM.

And the IC50 [2, 5]?
Its IC50 is 1340 nM.

What about the “Proliferation assay HELA TD50” value (HeLa cells) of the same molecule?
Its value is 3757.7 nM.

What about the EMSA screening results [3] of the same molecule?
Its EMSA screening results is “Positive (A compound showing >25% inhibition when tested at 100µM concentration is considered as "positive")”.

What does the source list for `Cc1cccnc1-c1nc(O)c(O)c(C(=O)OCC2CCCCC2)n1` [Compound 10, cyclohexylmethyl 5,6-dihydroxy-2-(3-methylpyridin-2-yl)pyrimidine-4-carboxylate]?
Proliferation assay PBMC TD50 [1]: 8100 nM; IC50 [2, 4]: 1400 nM; Proliferation assay HELA TD50 (HeLa cells): >50000 nM; EMSA screening results [3]: Negative

How did the “Proliferation assay PBMC TD50” value [1] turn out when `COc1cccc(-c2nc(O)c(O)c(C(=O)N[C@H](C)C3CCCCC3)n2)n1` [Compound 37, (R)-N-(1-cyclohexylethyl)-5,6-dihydroxy-2-(6-methoxypyridin-2-yl)pyrimidine-4-carboxamide] was run?
The value was 1500 nM.

And the IC50 [2, 4]?
The IC50 was 332 nM.

And the “Proliferation assay HELA TD50” value (HeLa cells)?
Its value is 897.6 nM.

What about the EMSA screening results [3] of the same molecule?
Its EMSA screening results is “Positive (A compound showing >25% inhibition when tested at 100µM concentration is considered as "positive")”.

With `Cc1cccnc1-c1nc(O)c(O)c(C(=O)N[C@@H](C)C2CCCCC2)n1` [Compound 39, (S)-N-(1-cyclohexylethyl)-5,6-dihydroxy-2-(3-methylpyridin-2-yl)pyrimidine-4-carboxamide] as the molecule, how does the “Proliferation assay PBMC TD50” value [1] read?
Its value is 2300 nM.

What about the IC50 [2, 4] of the same molecule?
The IC50 was 76.5 nM.

And the “Proliferation assay HELA TD50” value (HeLa cells)?
Its value is 878.8 nM.

What about the EMSA screening results [3] of the same molecule?
The EMSA screening results was “Negative”.

What does the source list for `Cc1ccnc(-c2nc(O)c(O)c(C(=O)N[C@@H](C)C3CCCCC3)n2)c1` [Compound 79, (S)-N-(1-cyclohexylethyl)-5,6-dihydroxy-2-(4-methylpyridin-2-yl)pyrimidine-4-carboxamide]?
Proliferation assay PBMC TD50 [1]: 2300 nM; IC50 [2, 4]: 178 nM; Proliferation assay HELA TD50 (HeLa cells): 1723.3 nM; EMSA screening results [3]: Positive (A compound showing >25% inhibition when tested at 100µM concentration is considered as "positive")

`C[C@@H](NC(=O)c1nc(-c2cccc(C(=O)OCc3ccccc3)n2)nc(O)c1O)C1CCCCC1` [Compound 54, benzyl (R)-6-(4-((1-cyclohexylethyl)carbamoyl)-5,6-dihydroxypyrimidin-2-yl)picolinate] was tested. Which “Proliferation assay PBMC TD50” value [1] did it give?
Its value is 25000 nM.

What about the IC50 [2, 5] of the same molecule?
Its IC50 is 422 nM.

And the “Proliferation assay HELA TD50” value (HeLa cells)?
The value was 24972 nM.

What about the EMSA screening results [3] of the same molecule?
The EMSA screening results was “Positive (A compound showing >25% inhibition when tested at 100µM concentration is considered as "positive")”.

For `COc1ccnc(-c2nc(O)c(O)c(C(=O)NC3CCC(C)(C)CC3)n2)c1` [Compound 77, N-(4,4-dimethylcyclohexyl)-5,6-dihydroxy-2-(4-methoxypyridin-2-yl)pyrimidine-4-carboxamide], which “Proliferation assay PBMC TD50” value [1] is on record?
Its value is 2200 nM.

What about the IC50 [2, 4] of the same molecule?
The IC50 was 1170 nM.

What about the “Proliferation assay HELA TD50” value (HeLa cells) of the same molecule?
The value was 2257.8 nM.

What about the EMSA screening results [3] of the same molecule?
The EMSA screening results was “Positive (A compound showing >25% inhibition when tested at 100µM concentration is considered as "positive")”.

With `C[C@@H](NC(=O)c1nc(-c2nc3ccccc3[nH]2)nc(O)c1O)C1CCCCC1` [Compound 29, (R)-2-(1H-benzo[d]imidazol-2-yl)-N-(1-cyclohexylethyl)-5,6-dihydroxypyrimidine-4-carboxamide] as the molecule, how does the “Proliferation assay PBMC TD50” value [1] read?
The value was 1700 nM.

What about the IC50 [2, 4] of the same molecule?
The IC50 was 1780 nM.

What about the “Proliferation assay HELA TD50” value (HeLa cells) of the same molecule?
The value was 3396.5 nM.

What about the EMSA screening results [3] of the same molecule?
The EMSA screening results was “Positive (A compound showing >25% inhibition when tested at 100µM concentration is considered as "positive")”.

For `C[C@@H](NC(=O)c1nc(-c2cccc(N)n2)nc(O)c1O)C1CCCCC1` [Compound 45, (R)-2-(6-aminopyridin-2-yl)-N-(1-cyclohexylethyl)-5,6-dihydroxypyrimidine-4-carboxamide], which “Proliferation assay PBMC TD50” value [1] is on record?
The value was 3360 nM.

And the IC50 [2, 4]?
Its IC50 is 1390 nM.

What about the “Proliferation assay HELA TD50” value (HeLa cells) of the same molecule?
The value was 3227.2 nM.

What about the EMSA screening results [3] of the same molecule?
The EMSA screening results was “Positive (A compound showing >25% inhibition when tested at 100µM concentration is considered as "positive")”.

For `C[C@H](NC(=O)c1nc(-c2cc(C(F)(F)F)ccn2)nc(O)c1O)C1CCCCC1` [Compound 52, (S)-N-(1-cyclohexylethyl)-5,6-dihydroxy-2-(4-(trifluoromethyl)pyridin-2-yl)pyrimidine-4-carboxamide], which “Proliferation assay PBMC TD50” value [1] is on record?
The value was 1200 nM.

What about the IC50 [2, 4] of the same molecule?
The IC50 was 433 nM.

What about the “Proliferation assay HELA TD50” value (HeLa cells) of the same molecule?
Its value is 10186 nM.

What about the EMSA screening results [3] of the same molecule?
The EMSA screening results was “Positive (A compound showing >25% inhibition when tested at 100µM concentration is considered as "positive")”.

How did the “Proliferation assay PBMC TD50” value [1] turn out when `O=C(NCCC1CCCC1)c1nc(-c2ccccn2)nc(O)c1O` [Compound 43, N-(2-cyclopentylethyl)-5,6-dihydroxy-2-(pyridin-2-yl)pyrimidine-4-carboxamide] was run?
Its value is 8090 nM.

And the IC50 [2, 5]?
The IC50 was 1380 nM.

What about the “Proliferation assay HELA TD50” value (HeLa cells) of the same molecule?
Its value is 2190.1 nM.

And the EMSA screening results [3]?
Its EMSA screening results is “Positive (A compound showing >25% inhibition when tested at 100µM concentration is considered as "positive")”.

For `O=C(NCC1CCCCC1)c1nc(-c2ccccn2)nc(O)c1O` [Compound 1, N-(cyclohexylmethyl)-5,6-dihydroxy-2-(pyridin-2-yl)pyrimidine-4-carboxamide], which “Proliferation assay PBMC TD50” value [1] is on record?
The value was 2600 nM.

And the IC50 [2, 4]?
Its IC50 is 1210 nM.

And the “Proliferation assay HELA TD50” value (HeLa cells)?
Its value is 3585.7 nM.

What about the EMSA screening results [3] of the same molecule?
The EMSA screening results was “Positive (A compound showing >25% inhibition when tested at 100µM concentration is considered as "positive")”.

What does the source list for `C[C@@H](NC(=O)c1nc(-c2cc3ccccc3cn2)nc(O)c1O)C1CCCCC1` [Compound 25, (R)-N-(1-cyclohexylethyl)-5,6-dihydroxy-2-(isoquinolin-3-yl)pyrimidine-4-carboxamide]?
Proliferation assay PBMC TD50 [1]: 1750 nM; IC50 [2, 4]: 32 nM; Proliferation assay HELA TD50 (HeLa cells): 1393.4 nM; EMSA screening results [3]: Positive (A compound showing >25% inhibition when tested at 100µM concentration is considered as "positive")

`O=C(OCC1CCCCC1)c1nc(-c2ncccc2Cl)nc(O)c1O` [Compound 15, cyclohexylmethyl 2-(3-chloropyridin-2-yl)-5,6-dihydroxypyrimidine-4-carboxylate] was tested. Which “Proliferation assay PBMC TD50” value [1] did it give?
The value was 25000 nM.

And the IC50 [2, 5]?
The IC50 was 9660 nM.

And the “Proliferation assay HELA TD50” value (HeLa cells)?
The value was over 50000 nM.

What about the EMSA screening results [3] of the same molecule?
Its EMSA screening results is “Positive (A compound showing >25% inhibition when tested at 100µM concentration is considered as "positive")”.

Which results are given for `C[C@H](NC(=O)c1nc(-c2ccccn2)nc(O)c1O)C1CCCCC1` [Compound 38, (S)-N-(1-cyclohexylethyl)-5,6-dihydroxy-2-(pyridin-2-yl)pyrimidine-4-carboxamide]?
Proliferation assay PBMC TD50 [1]: 2450 nM; IC50 [2, 4]: 154 nM; Proliferation assay HELA TD50 (HeLa cells): 578.2 nM; EMSA screening results [3]: Positive (A compound showing >25% inhibition when tested at 100µM concentration is considered as "positive")

Which “Proliferation assay PBMC TD50” value [1] does the source give for `C[C@H](NC(=O)c1nc(-c2cc(Cl)ccn2)nc(O)c1O)C1CCCCC1` [Compound 78, (S)-2-(4-chloropyridin-2-yl)-N-(1-cyclohexylethyl)-5,6-dihydroxypyrimidine-4-carboxamide] here?
Its value is 1900 nM.

What about the IC50 [2, 4] of the same molecule?
Its IC50 is 285 nM.

And the “Proliferation assay HELA TD50” value (HeLa cells)?
Its value is 2357.6 nM.

What about the EMSA screening results [3] of the same molecule?
Its EMSA screening results is “Positive (A compound showing >25% inhibition when tested at 100µM concentration is considered as "positive")”.
